From patent publication US12552790B2, “Positive modulators of the muscarinic acetylcholine receptor M4” (Vanderbilt University, priority 2023, dated 2026)
pEC50: −log10 of the molar value.

Tests used:
Human M4 = target: T1, Human M4 (Homo sapiens, UniProt P08173); assay: M4 cell-based functional assay, calcium mobilization, potentiation of ACh EC20; details: for Emax at 30 µM: % ACh maximum at 30 μM; for pEC50: CHO-K1 hM4-Gqi5 cells, calcium flux, ACh EC20
T1 construct: expressed in transfected cells
T1 sequence (P08173 1-479): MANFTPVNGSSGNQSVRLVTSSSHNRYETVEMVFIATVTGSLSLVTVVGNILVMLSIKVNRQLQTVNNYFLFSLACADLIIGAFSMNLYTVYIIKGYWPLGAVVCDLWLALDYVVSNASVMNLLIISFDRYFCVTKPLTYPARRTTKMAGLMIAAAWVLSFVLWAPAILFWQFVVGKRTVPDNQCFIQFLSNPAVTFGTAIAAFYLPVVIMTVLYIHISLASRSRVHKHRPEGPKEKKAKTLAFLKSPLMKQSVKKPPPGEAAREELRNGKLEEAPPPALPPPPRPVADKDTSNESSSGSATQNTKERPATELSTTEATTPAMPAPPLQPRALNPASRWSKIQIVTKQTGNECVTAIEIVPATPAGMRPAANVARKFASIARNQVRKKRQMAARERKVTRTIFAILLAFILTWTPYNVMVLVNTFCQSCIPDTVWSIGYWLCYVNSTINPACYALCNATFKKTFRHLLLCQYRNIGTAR
Protocol: Human and rat M4 cDNAs, along with the chimeric G protein Gqi5, were transfected into Chinese hamster ovary (CHO-K1) cells purchased from the American Type Culture Collection using Lipofectamine2000. The transfected cells were subjected to selection antbiotic treatment to generate stable cell lines; G418 sulfate (1 mg/ml) for selecting M4 expressing cells and Hygromycin B (500 μg/mL) for selecting Gqi5 expressing cells. The resulting polyclones were further screened to obtain monoclones of hM4-Gqi5 and rM4-Gqi5 for compound screening assay. Stable monoclone cells were maintained in Ham's F-12 medium containing 10% heat-inactivated fetal bovine serum (FBS), 1× Antibiotic/Antimycotic, 20 mM HEPES, 500 μg/mL G418 sulfate, and 200 μg/mL Hygromycin B in 37° C. humidified incubators in the presence of 5% CO2.
(§1) The high throughput assay was employed to measure receptor-induced mobilization of intracellular calcium to determine compound activity. Test compound was added to cells expressing the muscarinic receptors that were loaded with calcium sensitive fluorescent dye. After a ˜2.5 minute incubation period, a submaximal (EC20) concentration of acetylcholine was added, and the response measured. This kinetic assay allows for simultaneous screening and potency determination of multiple pharmacological modes of action including agonist and potentiator activity. CHO-K1 cells stably expressing muscarinic receptors were plated in growth medium lacking G418 and hygromycin at 15,000 cells/20 μL/well in Greiner 384-well black-walled, tissue culture (TC)-treated, clear-bottom plates (Greiner Bio-One). Cells were incubated overnight at 37° C. and 5% CO2. The next day, calcium assay buffer (Hank's balanced salt solution (HBSS), 20 mM HEPES, 2.5 mM Probenecid, 4.16 mM sodium bicarbonate (Sigma-Aldrich, St. Louis, MO)) was prepared to dilute compounds, agonists, and Fluo-4-acetomethoxyester (Fluo-4-AM), fluorescent calcium indicator dye. Compounds were serially diluted 1:3 into 10 point concentration response curves in DMSO using the Bravo Liquid Handler (Agilent, Santa Clara, CA), transferred to a 384 well daughter plates using an Echo acoustic liquid handler (Beckman Coulter, Indianapolis, Indiana), and diluted in assay Buffer to a 2× final concentration. The agonist plates were prepared using acetylcholine (ACh, Sigma-Aldrich, St. Louis, MO) concentrations for the EC20 and ECMAX responses by diluting in assay buffer to a 5× final concentration. The 2× dye solution (2.3 μM) was prepared by mixing a 2.3 mM Fluo-4-AM stock in DMSO with 10% (w/v) pluronic acid F-127 in a 1:1 ratio in assay buffer. Using a microplate washer (BioTek, Winooski, VT), cells were washed with assay buffer for 3 times to remove medium. After the final wash, 20 μL of assay buffer remained in the cell plates. Immediately, 20 μL of the 2× dye solution (final 1.15 μM) was added to each well of the cell plate using a Multidrop Combi dispenser (Thermo Fisher, Waltham, MA). After cells were incubated with the dye solutions for 45 min at 37° C. in the presence of 5% CO2, the dye solutions were removed and replaced with assay buffer using a microplate washer, leaving 20 μL of assay buffer in the cell plate.
The prepared compound, agonist, and cell plates were placed inside the Functional Drug Screening System uCell (FDSS uCell, Hamamatsu, Japan) to measure the calcium flux. The triple add protocol was used to measure Ca kinetics; Compound, ACh for EC20, and ACh for EC80 adds in an order. Briefly, after establishment of a fluorescence baseline for 2 seconds (excitation, 480 nm; emission, 530 nm), first add occurred by adding 20 μL of test compound to the cells, and the response was measured for 140 seconds. This is followed by second add; 10 μL (5×) of an EC20 concentration of ACh agonist was added to the cells, and the response of the cells was measured for 125 seconds. […]

Human M2 = target: T2, Human M2 (Homo sapiens, UniProt P08172); assay: M2 cell-based functional assay, calcium mobilization (selectivity); details: for Emax at 30 µM: % ACh maximum at 30 μM
T2 construct: expressed in transfected cells; host or cells: CHO-K1
T2 sequence (P08172 1-466): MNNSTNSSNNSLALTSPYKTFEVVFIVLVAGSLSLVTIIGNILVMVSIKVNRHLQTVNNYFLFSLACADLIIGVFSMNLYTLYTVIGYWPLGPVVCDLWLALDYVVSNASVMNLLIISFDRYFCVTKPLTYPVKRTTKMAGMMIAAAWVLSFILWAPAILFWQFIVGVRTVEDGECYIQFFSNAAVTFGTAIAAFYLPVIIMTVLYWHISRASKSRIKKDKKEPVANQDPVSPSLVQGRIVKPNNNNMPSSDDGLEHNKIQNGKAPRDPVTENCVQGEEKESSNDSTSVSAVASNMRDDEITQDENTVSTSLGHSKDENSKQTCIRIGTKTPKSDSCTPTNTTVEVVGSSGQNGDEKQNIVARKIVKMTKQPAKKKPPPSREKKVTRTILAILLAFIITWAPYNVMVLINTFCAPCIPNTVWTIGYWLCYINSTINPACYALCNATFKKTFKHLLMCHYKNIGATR
Protocol: as §1
The prepared compound, agonist, and cell plates were placed inside the Functional Drug Screening System uCell (FDSS uCell, Hamamatsu, Japan) to measure the calcium flux. The triple add protocol was used to measure Ca kinetics; Compound, ACh for EC20, and ACh for EC80 adds in an order. Briefly, after establishment of a fluorescence baseline for 2 seconds (excitation, 480 nm; emission, 530 nm), first add occurred by adding 20 μL of test compound to the cells, and the response was measured for 140 seconds. This is followed by second add; 10 μL (5×) of an EC20 concentration of ACh agonist was added to the cells, and the response of the cells was measured for 125 seconds. Immediately, the third add occurred by adding […] (5×) of an EC80 concentration of ACh and the response of the cells was measured for 90 seconds. Acetylcholine-mediated maximum response (ECmax) was measured by adding 1 mM ACh as third add in the control wells. DMSO vehicle was added to the control wells in the first add for assessing ACh EC20, EC80, and ECmax responses. Calcium fluorescence was recorded as fold over basal fluorescence and raw data were normalized to the maximal response to ACh agonist. Agonist activity was analyzed as a concentration-dependent increase in calcium mobilization upon compound addition. Positive allosteric modulator activity was analyzed as a concentration-dependent increase in the EC20 acetylcholine response. Antagonist activity was analyzed as a concentration-dependent decrease in the EC80 acetylcholine response. […]

[1] = M2 cell-based functional assay, calcium flux

Compound | Emax at 30 µM (Human M4) [%] | pEC50 (Human M4) | Emax at 30 µM (Human M2) [%] | pEC50 (Human M2; [1]) | Human M2 EC50 (Human M2; [1])
[2H]C1([2H])Oc2ccc(O[C@H]3CCN(c4nc5c(cc4C)C(=O)NC5)[C@H](C)C3)cc2OC1([2H])[2H] [Compound 4, 2-((2R,4S)-4-((2,3-dihydrobenzo[b][1,4]dioxin-6-yl-2,2,3,3-d4)oxy)-2-methylpiperidin-1-yl)-3-methyl-6,7-dihydro-5H-pyrrolo[3,4-b]pyridin-5-one] | 85 | 7.96 | 57 | 5.23 | –
[2H]C1([2H])Oc2ccc(OC3CCN(c4nc5c(cc4C)C(=O)N(C)C5)CC3)cc2OC1([2H])[2H] [Compound 5, 2-(4-((2,3-dihydrobenzo[b][1,4]dioxin-6-yl-2,2,3,3-d4)oxy)piperidin-1-yl)-3,6-dimethyl-6,7-dihydro-5H-pyrrolo[3,4-b]pyridin-5-one] | 76 | 8.40 | 70 | 6.66 | –
[2H]C1([2H])Oc2ccc(OC3CCN(c4nc5c(cc4C)C(=O)N(C4CC4)C5)CC3)cc2OC1([2H])[2H] [Compound 6, 6-cyclopropyl-2-(4-((2,3-dihydrobenzo[b][1,4]dioxin-6-yl-2,2,3,3-d4)oxy)piperidin-1-yl)-3-methyl-6,7-dihydro-5H-pyrrolo[3,4-b]pyridin-5-one] | 78 | 8.05 | 64 | 6.06 | –
[2H]C1([2H])Oc2ccc(OC3CCN(c4nc5c(cc4C)C(=O)N(C4CCCC4)C5)CC3)cc2OC1([2H])[2H] [Compound 7, 6-cyclopentyl-2-(4-((2,3-dihydrobenzo[b][1,4]dioxin-6-yl-2,2,3,3-d4)oxy)piperidin-1-yl)-3-methyl-6,7-dihydro-5H-pyrrolo[3,4-b]pyridin-5-one] | 76 | 7.19 | 53 | 5.43 | –
[2H]C1([2H])Oc2ccc(OC3CCN(c4nc5c(cc4C)C(=O)OC5)CC3)cc2OC1([2H])[2H] [Compound 8, 2-(4-((2,3-dihydrobenzo[b][1,4]dioxin-6-yl-2,2,3,3-d4)oxy)piperidin-1-yl)-3-methylfuro[3,4-b]pyridin-5(7H)-one] | 104 | 8.52 | 56 | 6.31 | –
[2H]C1([2H])Oc2ccc(OC3CCN(c4nc5c(cc4C)C(=O)OC5C)CC3)cc2OC1([2H])[2H] (centres unmarked) [Compound 9, 2-(4-((2,3-dihydrobenzo[b][1,4]dioxin-6-yl-2,2,3,3-d4)oxy)piperidin-1-yl)-3,7-dimethylfuro[3,4-b]pyridin-5(7H)-one] | 91 | 7.57 | 57 | 5.65 | –
[2H]C1([2H])Oc2ccc(OC3CCN(c4nc5c(c(C)c4C)C(=O)N(C)C5)CC3)cc2OC1([2H])[2H] [Compound 12, 2-(4-((2,3-dihydrobenzo[b][1,4]dioxin-6-yl-2,2,3,3-d4)oxy)piperidin-1-yl)-3,4,6-trimethyl-6,7-dihydro-5H-pyrrolo[3,4-b]pyridin-5-one] | 103 | 8.15 | 54 | 5.62 | –
[2H]C1([2H])Oc2ccc(OC3CCN(c4nc5c(c(C)c4C)C(=O)NC5)CC3)cc2OC1([2H])[2H] [Compound 13, 2-(4-((2,3-dihydrobenzo[b][1,4]dioxin-6-yl-2,2,3,3-d4)oxy)piperidin-1-yl)-3,4-dimethyl-6,7-dihydro-5H-pyrrolo[3,4-b]pyridin-5-one] | 101 | 8.40 | – | – | inactive

The next lines start with the values.

Emax at 30 µM (Human M4) [%] | pEC50 (Human M4) | Emax at 30 µM (Human M2) [%] | pEC50 (Human M2; [1]) | Human M2 EC50 (Human M2; [1]) | Compound
108 | 8.52 | 69 | 6.46 | – | [2H]C1(Oc2ccc3c(c2)OC([2H])([2H])C([2H])([2H])O3)CCN(c2nc3c(cc2C)C(=O)NC3)CC1 [Compound 1, 2-(4-((2,3-dihydrobenzo[b][1,4]dioxin-6-yl-2,2,3,3-d4)oxy)piperidin-1-yl-4-d)-3-methyl-6,7-dihydro-5H-pyrrolo[3,4-b]pyridin-5-one]
91 | 8.52 | 57 | 6.25 | – | [2H]C1([2H])CC(Oc2ccc3c(c2)OC([2H])([2H])C([2H])([2H])O3)CC([2H])([2H])N1c1nc2c(cc1C)C(=O)NC2 [Compound 2, 2-(4-((2,3-dihydrobenzo[b][1,4]dioxin-6-yl-2,2,3,3-d4)oxy)piperidin-1-yl-2,2,6,6-d4)-3-methyl-6,7-dihydro-5H-pyrrolo[3,4-b]pyridin-5-one]
93 | 8.52 | 60 | 6.48 | – | [2H]C1(Oc2ccc3c(c2)OCCO3)CCN(c2nc3c(cc2C)C(=O)NC3)CC1 [Compound 10, 2-(4-((2,3-dihydrobenzo[b][1,4]dioxin-6-yl)oxy)piperidin-1-yl-4-d)-3-methyl-6,7-dihydro-5H-pyrrolo[3,4-b]pyridin-5-one]
73 | 8.30 | 60 | 6.29 | – | [2H]C1([2H])CC(Oc2ccc3c(c2)OCCO3)CC([2H])([2H])N1c1nc2c(cc1C)C(=O)NC2 [Compound 11, 2-(4-((2,3-dihydrobenzo[b][1,4]dioxin-6-yl)oxy)piperidin-1-yl-2,2,6,6-d4)-3-methyl-6,7-dihydro-5H-pyrrolo[3,4-b]pyridin-5-one]
